# From patent US5045566A, “Novel imidate insecticides” (ICI Americas Inc., priority 1989, dated 1991)
# Key:
# Assay type in all cases: in vivo
# [1] = test system: Cabbage Looper [Trichoplusia ni (Hubner)]; experiment: Cabbage looper leaf dip (CL), 3-5 days; conditions: percent in solution, second-instar larvae
# Protocol: (§1) The compounds in Tables 1 and 2 above were tested for insecticidal activity using the following testing procedures. LC50 values, based on the results of these tests and calculated according to dosage-mortality curves, are expressed in Table 3.
# Cabbage Looper [Trichoplusia ni (Hubner)]:
# Test compounds were diluted in a 50-50 acetone-water solution. Cotyledons of hyzini squash (Calabacita abobrinha), approximately 1×1.5 inches, were immersed in the test solutions for 2-3 seconds and placed on a wire screen to dry. The dried leaves were placed in petri dishes containing a moistened piece of filter paper and infested with 5 second-instar cabbage looper larvae. The dishes were placed in a high humidity chamber. Mortality of the larvae was recorded 3-5 days later. Test concentrations ranged from 0.1% downward. The LC-50 value is expressed below in Table 3 under the heading "CL" in terms of percent of the test compound in solution.
# [2] = test system: Black Bean Aphid [Aphis fabae (Scop.)]; experiment: Black bean aphid spray test on nasturtium (BBA), 48 hours; conditions: percent of test compound in sprayed solution
# Protocol: as §1
# Black Bean Aphid [Aphis fabae (Scop.)]:
# Nasturtium plants (Tropaeolum sp.) approximately 5 cm tall, were transplanted into sandy loam soil in small cups and infested with 25-50 black bean aphids of mixed ages. Twenty-four hours later they were sprayed to the point of runoff with 50-50 acetone-water solutions of the test compounds. Treated plants were held in the greenhouse and mortality was recorded after 48 hours. Test concentrations ranged from 0.05% downward. The LC-50 value is expressed below in Table 3 under the heading "BBA" in terms of percent of the test compound in the sprayed solution.
# [3] = test system: Tobacco Budworm [Heliothis virescens (Fabricius)] eggs; experiment: Tobacco budworm eggs (TBW-E); conditions: percent in solution; 2-day old eggs
# Protocol: as §1
# Tobacco Budworm [Heliothis virescens (Fabricius)]:
# (b). Eggs: Paper towel patches of 2-day old eggs of the tobacco budworm were dipped in acetone solutions of the test compound and placed in petri dishes containing a portion of larval rearing medium. Treated eggs were maintained at 78° F. and mortality was recorded after all control eggs had hatched and the young larvae were feeding on the media. Test concentrations ranged from 0.1% downward. The LC-50 value is expressed below in Table 3 under the heading "TBW-E" in terms of percent of the test compound in the solution.
# [4] = test system: Housefly [Musca domestica]; experiment: Housefly contact mortality in dishes (HF), 48 hours; conditions: μg of test compound per 25 female flies
# Protocol: as §1
# Housefly [Musca domestica]:
# Test compounds were diluted in acetone and aliquots pipetted onto the bottom of aluminum dishes. To ensure even spreading of the chemical on the bottom of the dishes, 1 ml of acetone containing 0.01% peanut oil was also added to each dish. After all solvents had evaporated, the dishes were placed in circular cardboard cages containing 25 female houseflies, 1-2 days old. The cages were covered on the bottom with cellophane and on the top with tulle netting, and each contained a sugar-water saturated cotton plug for maintenance of the flies. Mortality was recorded after 48 hours. Test levels ranged from 100 μg/25 female houseflies downward. The LC-50 value is expressed below in Table 3 under the heading "HF", in terms of μg of the test compound per 25 female flies.
Structure (SMILES),LC50 CL [1] [%],LC50 BBA [2] [%],LC50 TBW E (eggs) [3] [%],LC50 HF [4] [µg]
CCSc1ccc(N=C(OCc2cccc(Oc3ccccc3)c2)C(C)C)cc1Cl [Compound 103],0.015,0.001,> 0.1,> 100
CCOC(=O)c1ccc(N=C(OCc2cccc(Oc3ccccc3)c2)C(C)C)cc1Cl [Compound 104],0.004,0.003,> 0.1,> 100
CC(C)(C)C(=Nc1ccc(Cl)c([N+](=O)[O-])c1)OCc1cccc(Oc2ccccc2)c1 [Compound 105],0.018,0.05,> 0.1,> 100
CC(C)(C)C(=Nc1ccc(Br)c(Cl)c1)OCc1cccc(Oc2ccccc2)c1 [Compound 106],0.014,0.01,> 0.1,> 100
Cc1ccc(N=C(OCc2cccc(Oc3ccccc3)c2)C(C)(C)C)cc1Cl [Compound 107],0.007,0.01,> 0.1,> 100
Cc1cc(Cl)ccc1N=C(OCc1cccc(Oc2ccccc2)c1)C(C)(C)C [Compound 109],0.002,> 0.05,> 0.1,> 100
CC(C)(Cl)C(=Nc1ccc(Cl)c2ccccc12)OCc1cccc(Oc2ccccc2)c1 [Compound 111],0.1,0.003,> 0.1,> 100
Cc1cc(N=C(OCc2cccc(Oc3ccccc3)c2)C(C)C)ccc1Br [Compound 127],0.01,0.001,0.04,58
CC(C)C(=Nc1c(Br)cc(F)cc1Br)OCc1cccc(Oc2ccccc2)c1 [Compound 130],0.005,0.05,> 0.1,> 100
Cc1cc(Br)ccc1N=C(OCc1cccc(Oc2ccccc2)c1)C(C)C [Compound 133],0.005,0.003,0.1,66
CC(C)(C)C(=Nc1cccc(Br)c1)OCc1cccc(Oc2ccccc2)c1 [Compound 134],0.015,> 0.05,> 0.1,> 100
CC(C)C(=Nc1cccc(I)c1)OCc1cccc(Oc2ccccc2)c1 [Compound 136],0.004,0.002,0.08,9
CSc1ccc(N=C(OCc2cccc(Oc3ccccc3)c2)C(Cl)Cl)cc1 [Compound 141],< 0.1,0.006,> 0.1,35
Cc1cccc(N=C(OCc2cccc(Oc3ccccc3)c2)C(C)C)c1C [Compound 148],0.0025,0.0003,0.025,18
COc1ccc(N=C(OCc2cccc(Oc3ccccc3)c2)C(C)C)c(C)c1 [Compound 149],0.007,0.001,0.05,17
COc1ccc(C)cc1N=C(OCc1cccc(Oc2ccccc2)c1)C(C)C [Compound 150],0.01,0.03,> 0.1,89
CCCCc1ccc(N=C(OCc2cccc(Oc3ccccc3)c2)C(C)C)cc1 [Compound 152],0.009,0.01,> 0.1,> 100
CCC(=Nc1ccc(CC)cc1)OCc1cccc(Oc2ccccc2)c1 [Compound 157],0.009,0.002,> 0.1,25
Cc1ccc(N=C(OCc2cccc(Oc3ccccc3)c2)C(C)C)cc1C [Compound 158],0.003,0.0015,0.1,9

Structure (SMILES),LC50 CL [1] [%],LC50 BBA [2] [%],LC50 TBW E (eggs) [3] [%],LC50 HF [4] [µg]
CCOc1ccc(N=C(OCc2cccc(Oc3ccccc3)c2)C(C)(C)C)cc1 [Compound 164],0.005,> 0.05,> 0.1,> 100
CC(C)c1ccc(N=C(OCc2cccc(Oc3ccccc3)c2)C(C)(C)C)cc1 [Compound 165],0.007,> 0.05,> 0.1,> 100
CSc1cccc(N=C(OCc2cccc(Oc3ccccc3)c2)C(C)C)c1 [Compound 166],0.009,0.001,> 0.1,22
Cc1ccc(N=C(OCc2cccc(Oc3ccccc3)c2)C(C)(C)C)cc1C [Compound 167],0.02,> 0.05,> 0.1,> 100
CCOC(=O)c1cccc(N=C(OCc2cccc(Oc3ccccc3)c2)C(C)(C)C)c1 [Compound 168],0.1,> 0.05,> 0.1,> 100
COc1ccc(N=C(OCc2cccc(Oc3ccccc3)c2)C(C)C)cc1OC [Compound 169],0.009,0.003,> 0.1,10
CC(C)(C)C(=Nc1cccc([N+](=O)[O-])c1)OCc1cccc(Oc2ccccc2)c1 [Compound 175],0.018,> 0.05,> 0.1,> 100
CC(C)C(=Nc1ccc(F)cc1)OCc1cccc(Oc2cccc(Cl)c2)c1 [Compound 205],0.004,0.03,> 0.1,50
CC(C)C(=Nc1ccc(F)cc1)OCc1cccc(Oc2ccc(F)cc2F)c1 [Compound 206],0.0017,0.03,> 0.1,50
CC(C)C(=Nc1ccc(C#N)cc1)OCc1cccc(Oc2cccc(Cl)c2)c1 [Compound 208],0.0035,0.05,> 0.1,27
CCC(C)C(=Nc1ccc(Cl)c(Cl)c1)OCc1cccc(Oc2ccc(F)cc2)c1 (stereo not shown) [Compound 211],0.0017,0.01,> 0.1,61
CC(C)C(=Nc1ccc(F)c(F)c1)OCc1cccc(Oc2ccc(C#N)cc2)c1 [Compound 212],0.0005,0.05,0.045,20
CC(C)C(=Nc1ccc(Cl)c(Cl)c1)OCc1cccc(Oc2ccc(F)cc2F)c1 [Compound 213],0.00075,0.01,> 0.1,> 100
CC(C)C(=Nc1ccc(F)c(F)c1)OCc1cccc(Oc2ccc(F)cc2F)c1 [Compound 214],0.0003,0.01,0.04,19
CC(C)C(=Nc1ccc(F)c(Cl)c1)OCc1cccc(Oc2cc(F)cc(F)c2)c1 [Compound 215],0.00075,0.05,> 0.1,75
CC(C)C(=Nc1ccc(Cl)c(Cl)c1)OCc1cccc(Oc2ccc(F)c(F)c2)c1 [Compound 218],0.0003,0.003,0.025,25
COc1ccc(Oc2cccc(COC(=Nc3ccc(F)cc3)C(C)C)c2)cc1 [Compound 220],0.007,0.03,> 0.1,85
COc1ccc(Oc2cccc(COC(=Nc3ccc(F)c(Cl)c3)C(C)C)c2)cc1 [Compound 221],0.0027,0.01,> 0.1,62
